target: PRMT5 (Homo sapiens (Human), UniProt O14744); assay: PRMT5 Chemiluminescent Assay; type: biochemical; conditions: PRMT5 chemiluminescent assay kit (BPS Bioscience), histone H4 peptide substrate, eight-point dose response
Experimental: The PRMT5 activity is measured by using “PRMT5 Chemiluminescent Assay Kit” from BPS Bioscience, Catalog Number 52002L as per the instructions of the manufacturer. Briefly, the PRMT5 enzyme is incubated with S-adenosylmethionine in a 96-well plate precoated with histone H4 peptide substrate. Next, a highly specific antibody that recognizes methylated R3 residue of Histone H4 is added followed by a horseradkish peroxidase-labeled (HRP-labeled) secondary antibody. Detection is done by the addition of the HRP substrate to produce chemiluminescence that can be measured quantitatively.
Compounds were serially diluted 3-fold and dosed from 10 uM down to 0 uM. Compounds were tested in duplicates to generate an eight-point dose response for the calculation of their IC50s.

PRMT5, sequence (O14744 2-637): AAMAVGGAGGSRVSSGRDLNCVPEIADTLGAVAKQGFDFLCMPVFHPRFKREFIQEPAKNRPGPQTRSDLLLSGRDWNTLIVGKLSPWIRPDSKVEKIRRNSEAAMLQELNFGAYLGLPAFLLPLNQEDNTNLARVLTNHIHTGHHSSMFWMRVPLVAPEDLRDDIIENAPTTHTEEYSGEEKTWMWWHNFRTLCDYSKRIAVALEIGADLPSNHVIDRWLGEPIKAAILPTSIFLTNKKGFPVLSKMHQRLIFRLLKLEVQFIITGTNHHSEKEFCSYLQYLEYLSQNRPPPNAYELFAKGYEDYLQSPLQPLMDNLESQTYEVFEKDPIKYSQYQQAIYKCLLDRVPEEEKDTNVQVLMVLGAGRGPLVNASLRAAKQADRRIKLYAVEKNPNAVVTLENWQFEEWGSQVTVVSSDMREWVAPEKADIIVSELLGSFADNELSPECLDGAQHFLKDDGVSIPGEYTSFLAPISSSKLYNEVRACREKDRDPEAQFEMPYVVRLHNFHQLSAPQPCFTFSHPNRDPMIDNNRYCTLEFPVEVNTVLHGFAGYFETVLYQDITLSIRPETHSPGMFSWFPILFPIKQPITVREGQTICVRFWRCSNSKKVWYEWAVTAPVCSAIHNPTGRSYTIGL
PRMT5, sequence (Q9BQA1 2-342 partner): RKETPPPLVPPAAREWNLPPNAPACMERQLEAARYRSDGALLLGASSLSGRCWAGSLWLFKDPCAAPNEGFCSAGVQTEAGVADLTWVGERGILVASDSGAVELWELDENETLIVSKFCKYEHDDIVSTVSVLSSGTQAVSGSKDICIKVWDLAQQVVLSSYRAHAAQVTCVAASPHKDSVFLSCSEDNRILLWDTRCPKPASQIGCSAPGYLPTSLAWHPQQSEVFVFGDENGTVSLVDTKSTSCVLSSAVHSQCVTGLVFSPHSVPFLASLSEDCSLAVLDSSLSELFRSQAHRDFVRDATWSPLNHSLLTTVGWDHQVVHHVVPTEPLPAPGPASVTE

IC50 [nM]	Structure (SMILES)
126	CC(C)Cn1c(=O)n(C[C@H](O)CN2CCc3ccccc3C2)c(=O)c2cc(Cl)ccc21 [Compound 69, 6-chloro-3-[(2R)-3-(3,4-dihydro-1H-isoquinolin-2-yl)-2-hydroxy-propyl]-1-isobutyl-quinazoline-2,4-dione]
57	CC(C)Cn1c(=O)n(C[C@H](O)CN2CCc3ccccc3C2)c(=O)c2cc(-c3ccc(F)cc3)ccc21 [Compound 76, 3-[(2R)-3-(3,4-dihydro-1H-isoquinolin-2-yl)-2-hydroxy-propyl]-6-(4-fluorophenyl)-1-isobutyl-quinazoline-2,4-dione]
66	COc1ccc2c(=O)n(C[C@H](O)CN3CCc4ccccc4C3)c(=O)[nH]c2c1 [Compound 82, 3-[(2R)-3-(3,4-dihydro-1H-isoquinolin-2-yl)-2-hydroxy-propyl]-7-methoxy-1H-quinazoline-2,4-dione]
9410	COc1ccc(Cn2c(=O)c3ccccc3n(CC(O)CN3CCc4ccccc4C3)c2=O)cc1 (centres unmarked) [Compound 97, 1-[3-(3,4-dihydro-1H-isoquinolin-2-yl)-2-hydroxy-propyl]-3-[(4-methoxyphenyl)methyl]quinazoline-2,4-dione]
24	O=c1[nH]c2cc(Br)ccc2c(=O)n1C[C@H](O)CN1CCc2ccccc2C1 [Compound 75, 7-bromo-3-[(2R)-3-(3,4-dihydro-1H-isoquinolin-2-yl)-2-hydroxy-propyl]-1H-quinazoline-2,4-dione]
159	CC(C)Cn1c(=O)n(C[C@H](O)CN2CCc3ccccc3C2)c(=O)c2cc(Br)ccc21 [Compound 71, 6-bromo-3-[(2R)-3-(3,4-dihydro-1H-isoquinolin-2-yl)-2-hydroxy-propyl]-1-isobutyl-quinazoline-2,4-dione]
13400	O=c1[nH]c2ccccc2c(=O)n1C[C@@H](O)CN1CCc2ccccc2C1 [Compound 62, 3-[(2S)-3-(3,4-dihydro-1H-isoquinolin-2-yl)-2-hydroxy-propyl]-1H-quinazoline-2,4-dione]
41	O=c1c2c(F)cccc2n(CC2CC2)c(=O)n1C[C@H](O)CN1CCc2ccccc2C1 [Compound 89, 1-(cyclopropylmethyl)-3-[(2R)-3-(3,4-dihydro-1H-isoquinolin-2-yl)-2-hydroxy-propyl]-5-fluoro-quinazoline-2,4-dione]
1060	O=c1c2ccccc2n(Cc2ccc(Cl)cc2)c(=O)n1C[C@H](O)CN1CCc2ccccc2C1 (stereo in doubt) [Compound 96, 1-[(4-chlorophenyl)methyl]-3-[3-(3,4-dihydro-1H-isoquinolin-2-yl)-2-hydroxy-propyl]quinazoline-2,4-dione]
903	O=c1c2ccccc2n(CC2CCOCC2)c(=O)n1CC(O)CN1CCc2ccccc2C1 (centres unmarked) [Compound 105, 3-[3-(3,4-dihydro-1H-isoquinolin-2-yl)-2-hydroxy-propyl]-1-(tetrahydropyran-4-ylmethyl)quinazoline-2,4-dione]
698	Cn1c(=O)n(CC(O)CN2CCc3ccccc3C2)c(=O)c2ccccc21 (centres unmarked) [Compound 63, 3-[3-(3,4-dihydro-1H-isoquinolin-2-yl)-2-hydroxy-propyl]-1-methyl-quinazoline-2,4-dione]
4490	CC(C)Cn1c(=O)n(C[C@@H](O)CN2CCc3ccccc3C2)c(=O)c2ccccc21 [Compound 101, 3-[(2S)-3-(3,4-dihydro-1H-isoquinolin-2-yl)-2-hydroxy-propyl]-1-isobutyl-quinazoline-2,4-dione]
33	O=c1[nH]c2cc(Cl)ccc2c(=O)n1C[C@H](O)CN1CCc2ccccc2C1 [Compound 68, 7-chloro-3-[(2R)-3-(3,4-dihydro-1H-isoquinolin-2-yl)-2-hydroxy-propyl]-1H-quinazoline-2,4-dione]
178	CC(C)Cn1c(=O)n(CC(O)CN2CCc3ccccc3C2)c(=O)c2ccccc21 (centres unmarked) [Compound 98, 3-[3-(3,4-dihydro-1H-isoquinolin-2-yl)-2-hydroxy-propyl]-1-isobutyl-quinazoline-2,4-dione]
216	O=c1[nH]c2ccc(Cl)cc2c(=O)n1C[C@H](O)CN1CCc2ccccc2C1 [Compound 67, 6-chloro-3-[(2R)-3-(3,4-dihydro-1H-isoquinolin-2-yl)-2-hydroxy-propyl]-1H-quinazoline-2,4-dione]
876	O=c1[nH]c2ccccc2c(=O)n1CC(O)CN1CCc2ccccc2C1 (centres unmarked) [Compound 61, 3-[3-(3,4-dihydro-1H-isoquinolin-2-yl)-2-hydroxy-propyl]-1H-quinazoline-2,4-dione]
360	O=c1[nH]c2ccccc2c(=O)n1C[C@H](O)CN1CCc2ccccc2C1 [Compound 64, 3-[(2R)-3-(3,4-dihydro-1H-isoquinolin-2-yl)-2-hydroxy-propyl]-1H-quinazoline-2,4-dione]
840	O=c1[nH]c2ccc(O)cc2c(=O)n1C[C@H](O)CN1CCc2ccccc2C1 [Compound 83, 3-[(2R)-3-(3,4-dihydro-1H-isoquinolin-2-yl)-2-hydroxy-propyl]-6-hydroxy-1H-quinazoline-2,4-dione]
518	COCCn1c(=O)n(CC(O)CN2CCc3ccccc3C2)c(=O)c2ccccc21 (centres unmarked) [Compound 65, 3-[3-(3,4-dihydro-1H-isoquinolin-2-yl)-2-hydroxy-propyl]-1-(2-methoxyethyl)quinazoline-2,4-dione]
29	Cc1cccc2c1c(=O)n(C[C@H](O)CN1CCc3ccccc3C1)c(=O)n2CC1CC1 [Compound 85, 1-(cyclopropylmethyl)-3-[(2R)-3-(3,4-dihydro-1H-isoquinolin-2-yl)-2-hydroxy-propyl]-5-methyl-quinazoline-2,4-dione]
70	CC(C)Cn1c(=O)n(C[C@H](O)CN2CCc3ccccc3C2)c(=O)c2cc(F)ccc21 [Compound 72, 3-[(2R)-3-(3,4-dihydro-1H-isoquinolin-2-yl)-2-hydroxy-propyl]-6-fluoro-1-isobutyl-quinazoline-2,4-dione]
14	CC(C)Cn1c(=O)n(C[C@H](O)CN2CCc3ccccc3C2)c(=O)c2ccc(Cl)cc21 [Compound 73, 7-chloro-3-[(2R)-3-(3,4-dihydro-1H-isoquinolin-2-yl)-2-hydroxy-propyl]-1-isobutyl-quinazoline-2,4-dione]
176	O=c1[nH]c2ccc(F)cc2c(=O)n1C[C@H](O)CN1CCc2ccccc2C1 [Compound 66, 3-[(2R)-3-(3,4-dihydro-1H-isoquinolin-2-yl)-2-hydroxy-propyl]-6-fluoro-1H-quinazoline-2,4-dione]
121	O=c1c2ccccc2n(CC2CC2(F)F)c(=O)n1C[C@H](O)CN1CCc2ccccc2C1 (stereo partly drawn) [Compound 90, 1-[(2,2-difluorocyclopropyl)methyl]-3-[(2R)-3-(3,4-dihydro-1H-isoquinolin-2-yl)-2-hydroxy-propyl]quinazoline-2,4-dione]
63	O=c1c2cc(F)ccc2n(CC2CC2)c(=O)n1C[C@H](O)CN1CCc2ccccc2C1 [Compound 77, 1-(cyclopropylmethyl)-3-[(2R)-3-(3,4-dihydro-1H-isoquinolin-2-yl)-2-hydroxy-propyl]-6-fluoro-quinazoline-2,4-dione]
122	O=c1c2ccccc2n(CCCC(F)(F)F)c(=O)n1C[C@H](O)CN1CCc2ccccc2C1 [Compound 93, 3-[(2R)-3-(3,4-dihydro-1H-isoquinolin-2-yl)-2-hydroxy-propyl]-1-(4,4,4-trifluorobutyl)quinazoline-2,4-dione]
